The text below walks through data of ChEMBL document CHEMBL5120946, “Bivalent BET Bromodomain Inhibitors Confer Increased Potency and Selectivity for BRDT via Protein Conformational Plasticity” (J Med Chem, 2022).

SMILES strings stand for the structures. Some results are limits rather than exact numbers.

Series [1] has as its target T1, Bromodomain testis-specific protein (Homo sapiens, UniProt Q58F21). Put plainly: Binding affinity to N-terminal hexa-histidine tagged BRDT-T (2 to 416 residues) (unknown origin) expressed in Escherichia coli BL21(DE3) cells.
Series [2] has as its target T1, Bromodomain testis-specific protein. Kind of series: Inhibition of recombinant human BRDT-2 (250 to 382 residues) expressed in bacterial expression system by bromoscan assay.
Series [3] deals with T2, Bromodomain-containing protein 4 (Homo sapiens, UniProt O60885). Put plainly: Inhibition of recombinant human BRD4-2 (333 to 460 residues) expressed in bacterial expression system by bromoscan assay.
Series [4] is described as follows: Metabolic stability in pooled mouse liver microsomes assessed as half life. The series is classed as ADME, Microsome. Particulars: for t1/2: microsomes; for half-life: pooled mouse liver microsomes.
Series [5] deals with MM1.S. Put plainly: Growth inhibition of human MM1.S cells incubated for 72 hrs by CellTiter-Blue assay. The class given is functional, cell-based. Background: The colour change of resazurin is a common sign of viable cells or microbes.
Series [6] is described as follows: Metabolic stability in pooled human liver microsomes assessed as half life. The series is classed as ADME, Microsome. Conditions: for t1/2: microsomes; for half-life: pooled human liver microsomes. (In general: Liver microsomes are a subcellular fraction often used to study metabolism.)
Series [7] addresses T2, Bromodomain-containing protein 4. Put plainly: Inhibition of recombinant human BRD4-1 (44 to 168 residues) expressed in bacterial expression system by bromoscan assay.
Series [8] addresses T1, Bromodomain testis-specific protein. Kind of series: Inhibition of recombinant human BRDT-1 (21 to 137 residues) expressed in bacterial expression system by bromoscan assay.
Series [9] concerns the target T2, Bromodomain-containing protein 4. Kind of series: Binding affinity to BRD4-T (unknown origin).
Series [10] has the same target. Kind of series: Inhibition of BRD4 in human MM1.S cells assessed as reduction in c-MYC level after 6 hrs by Western blot analysis. The class given is cell-based. On the technique in general: In western blotting, separated proteins are transferred to a membrane and probed.
Series [11] is described as follows: Permeability in MDCK-MDR1 cells. The series is classed as ADME, cell-based, Canis lupus familiaris. Conditions: dog; for Papp: MDCK-MDR1, read-out: permeability.
For series [12], the species on record is Homo sapiens. Kind of series: Selectivity ratio of Kd for BRD4 (unknown origin) to Kd for BRDT (unknown origin).

One may read the Kd as the concentration at which binding is half-saturated. The term IC50 denotes the concentration needed to halve the response being measured. For `Cc1cnc(Nc2ccc(C(=O)NC3CCN(C(=O)CCOCCOCCOCCOCCOCCC(=O)N4CCC(NC(=O)c5ccc(Nc6ncc(C)c(Nc7ccc(Cl)c(NS(=O)(=O)C(C)(C)C)c7)n6)cc5F)CC4)CC3)c(F)c2)nc1Nc1ccc(Cl)c(NS(=O)(=O)C(C)(C)C)c1`, the Kd in series [1] was 0.8 nM; in [2], 2.2 nM; in series [3] it was 1.5 nM; in [7], 4.6 nM; in series [8], 0.6 nM; in series [9], 1.6 nM. Moreover, the t1/2 in [4] is given as 30 min; in series [6] it was 10 min. Further, in series [5], the IC50 was 30 nM.
`Cn1cc(-c2cccc(N3CCCC3=O)c2)c2ccccc2c1=O`: the IC50 is 58 nM in series [5] and more than 1000 nM in series [10]. Moreover, the Kd in [7] was found to be 335 nM; in series [8] it was 875 nM.
`Cc1cnc(Nc2ccc(C(=O)NC3CCN(C(=O)COCCOCCOCC(=O)N4CCC(NC(=O)c5ccc(Nc6ncc(C)c(Nc7ccc(Cl)c(NS(=O)(=O)C(C)(C)C)c7)n6)cc5F)CC4)CC3)c(F)c2)nc1Nc1ccc(Cl)c(NS(=O)(=O)C(C)(C)C)c1`: the equilibrium dissociation constant (Kd) in [1] amounted to 2.6 nM; in [2], 8.4 nM; in series [3], 9.1 nM; in series [7], 28 nM; in series [8], 0.6 nM; in series [9] it was 4.8 nM. Also, half-maximal inhibition in series [5] (IC50) was put at 59 nM.
As a reminder, the half-life is the time needed for the level to fall by half in the phase considered. With `CCS(=O)(=O)Nc1ccc(OCCOCCOCCOCCOc2ccc(NS(=O)(=O)CC)cc2-c2cn(C)c(=O)c3ccccc23)c(-c2cn(C)c(=O)c3ccccc23)c1`, the Kd is 0.058 nM in [1]; 5.5 nM in series [2]; 0.32 nM in [3]; 0.095 nM in series [7]; 0.089 nM in [8]; 0.29 nM in [9]. In addition, the half-life in series [4] came out at 11 min; in series [6] it was 315 min. Moreover, the Papp in series [11] turned out to be 15 ×10⁻⁶ cm/s.
On to `CCS(=O)(=O)Nc1ccc(Oc2ccc(Cl)cc2)c(-c2cn(C)c(=O)c3ccccc23)c1`, for which the equilibrium dissociation constant (Kd) in [1] is 6 nM; in [2], 12 nM; in series [3], 3.7 nM; in series [7] it was 3.6 nM; in [8], 5 nM; in series [9], 2.3 nM. In addition, the results for the t1/2 in series [4] and in series [6] were 74 min and 299 min, respectively. This compound yielded an IC50 in series [5] of 8.5 nM. For the same compound, in series [11] (mdck-mdr1), the permeability is 2.7 10^-6 cm/s.
For `CCS(=O)(=O)Nc1cccc(-c2cn(C)c(=O)c3ccccc23)c1`, the half-life in series [4] and in [6] was less than 2.3 min throughout. For the same compound, the Kd in [8] was determined as 77 nM. For the same compound, in series [11], the Papp is 0.13 ×10⁻⁶ cm/s.
Consider `Cc1cnc(Nc2ccc(C(=O)NC3CCN(C)CC3)c(F)c2)nc1Nc1ccc(Cl)c(NS(=O)(=O)C(C)(C)C)c1`, for which the Kd worked out at 18 nM in series [1]; 25 nM in [2]; 20 nM in series [3]; 9.5 nM in series [8]; 6.7 nM in [9]. Besides, the IC50 in series [5] was 61 nM.
On to `Cc1cnc(Nc2ccc(C(=O)NC3CCNCC3)c(F)c2)nc1Nc1cc(NS(=O)(=O)C(C)(C)C)cc(C(=O)NCCOCCOCCOCCC(=O)N2CCC(NC(=O)c3ccc(Nc4ncc(C)c(Nc5ccc(Cl)c(NS(=O)(=O)C(C)(C)C)c5)n4)cc3F)CC2)c1`, for which the Kd in [1] worked out at 1.3 nM; in [2] it was 3.1 nM; in series [3], 3.2 nM; in [7] it was 6 nM; in [8] it was 0.16 nM; in [9], 1.7 nM. Besides, in series [4], the t1/2 is given as 55 min. In series [5], the concentration for half-maximal inhibition (IC50) turned out to be 1100 nM. In series [6], the half-life was 2.2 min. In addition, the Selectivity ratio in series [12] came to 12.
As to `Cc1cnc(Nc2ccc(C(=O)NC3CCN(C(=O)COCCOCC(=O)N4CCC(NC(=O)c5ccc(Nc6ncc(C)c(Nc7ccc(Cl)c(NS(=O)(=O)C(C)(C)C)c7)n6)cc5F)CC4)CC3)c(F)c2)nc1Nc1ccc(Cl)c(NS(=O)(=O)C(C)(C)C)c1`, the equilibrium dissociation constant (Kd) turned out to be 0.59 nM in series [1]; 3.5 nM in series [2]; 3.1 nM in series [3]; 4 nM in series [7]; 0.84 nM in series [8]; 3.6 nM in series [9]. In series [5], this compound showed an IC50 of 44 nM.
Regarding `Cc1cnc(Nc2ccc(C(=O)NC3CCN(C(=O)CCOCCOCCOCCOCCC(=O)N4CCC(NC(=O)c5ccc(Nc6ncc(C)c(Nc7ccc(Cl)c(NS(=O)(=O)C(C)(C)C)c7)n6)cc5F)CC4)CC3)c(F)c2)nc1Nc1ccc(Cl)c(NS(=O)(=O)C(C)(C)C)c1`, the Kd in series [1] stood at 1.55 nM; in series [2] it was 1.7 nM; in series [3], 3 nM; in series [7], 6.4 nM; in series [8] it was 0.92 nM; in series [9], 2.8 nM. Moreover, the t1/2 in series [4] amounted to 4.1 min; in [6] it was 5.6 min. The concentration for half-maximal inhibition (IC50) in [5] was 34 nM.
